Laboratory results published in publication PMC13619113 (Journal of controlled release : official journal of the …, 2023).

What was measured:
[1] = test system: Sprague-Dawley rats; assay: Blood glucose response after subcutaneous administration; format: in vivo, rat; settings: subcutaneous 1 IU/kg, fasted Sprague-Dawley rats, Fig. 7
[2] = test system: Sprague-Dawley rats; assay: Blood glucose response after intestinal closed-loop; format: in vivo, rat
[3] = rat, in vivo
[4] = test system: 50:50 coculture of Caco-2:HT29-MTX cells

| Substance | effect on blood glucose level [1] | effect on blood glucose level ([2]; 50 IU/kg delivered directly to the ileum, Fig. 8) | AUC [3] [ng·h/mL] | BA (%) [3] [%] | increase of the pharmacological availability over insulin ([2]; 50 IU/kg to the small intestine, rat) [times] | Papp × 10^−9 (cm/s) [4] |
| --- | --- | --- | --- | --- | --- | --- |
| Bovine insulin | effective at reducing the glucose levels below baseline throughout the testing period | limited hypoglycemic response | 12610 ± 9850 | 1.064 ± 0.83 | – | – |
| 2KPI: bovine insulin conjugated with 2000 da PEG via PEG nitrophenyl carbonate, 1:1, at LysB29 | – | – | – | – | 2.8 | 2.90 ± 0.86 × 10^−9 cm/s |
| 1KPI: bovine insulin conjugated with 1000 da PEG via PEG nitrophenyl carbonate | effective at reducing the glucose levels below baseline throughout the testing period | – | – | – | – | 3.28 ± 0.88 × 10^−9 cm/s |
| 5KPI: bovine insulin conjugated with 5000 da PEG via PEG nitrophenyl carbonate | least effect of the PEGylated insulin samples on blood glucose levels | – | – | – | – | 2.44 ± 0.06 × 10^−9 cm/s |
